The values that follow come from ChEMBL document CHEMBL3046519, “Synthesis and biological evaluation of some pyrazole derivatives as anti-inflammatoryantibacterial agents” (2012).

≈ marks a conversion by molar mass, not a printed value. Calls of active or inactive are those of the source. No cut-off for these calls is given here.

In experiment [1] the test system is Rattus norvegicus. The experiment in a line: Anti-inflammatory activity in Rattus norvegicus Wistar albino (rat) assessed as inhibition of carrageenan-induced paw edema at 10 mg/kg, ip administered for 30 min prior to carrageenan challenge measured at 4 hr relative to control. In kind it is functional. The settings on record: route intraperitoneal. For orientation: Carrageenan injected into the paw causes an acute inflammation.

Experiment [2] is filed under the species Rattus norvegicus. Put plainly: animal or person. The settings on record: Wistar albino, ip, read-out: INH.
The species named for experiment [3] is Rattus norvegicus. The experiment in a line: animal or person. The settings on record: Wistar albino, ip, read-out: INH. This is another data set of the same source.
Experiment [4] concerns Rattus norvegicus. The experiment in a line: Anti-inflammatory activity in Rattus norvegicus Wistar albino (rat) assessed as inhibition of carrageenan-induced paw edema at 10 mg/kg, ip administered for 30 min prior to carrageenan challenge measured at 3 hr relative to control. It is filed as functional. The settings on record: route intraperitoneal.
The test system of experiment [5] is Bacillus subtilis. Put plainly: Antibacterial activity against Bacillus subtilis MTCC 121 by NCCLS broth macrodilution method. It is filed as functional.
In experiment [6] the test system is Rattus norvegicus. Put plainly: Anti-inflammatory activity in Rattus norvegicus Wistar albino (rat) assessed as inhibition of carrageenan-induced paw edema at 50 mg/kg, po administered for 30 min prior to carrageenan challenge measured at 1 hr relative to control. In kind it is functional.
Experiment [7] has as its system Pseudomonas aeruginosa. The settings on record: MTCC 741, 4 mg/ml.
Experiment [8] concerns Bacillus subtilis. Put plainly: Antibacterial activity against Bacillus subtilis MTCC 121 at 4 mg/ml after 24 hr by agar well diffusion method. In kind it is functional. The settings on record: MTCC 121, 24 h, read-out: DIZ. A general note: A growth-free zone around the sample is the usual read-out of agar diffusion tests.
Experiment [9] has as its system Staphylococcus aureus. The experiment in a line: Antibacterial activity against Staphylococcus aureus MTCC 96 at 4 mg/ml after 24 hr by agar well diffusion method. It is filed as functional. The settings on record: MTCC 96, 24 h, read-out: DIZ.
Experiment [10] relates to Rattus norvegicus. The experiment in a line: Anti-inflammatory activity in Rattus norvegicus Wistar albino (rat) assessed as inhibition of carrageenan-induced paw edema at 50 mg/kg, po administered for 30 min prior to carrageenan challenge measured at 3 hr relative to control. In kind it is functional.
The test system of experiment [11] is Rattus norvegicus. The experiment in a line: Anti-inflammatory activity in Rattus norvegicus Wistar albino (rat) assessed as inhibition of carrageenan-induced paw edema at 50 mg/kg, po administered for 30 min prior to carrageenan challenge measured at 2 hr relative to control. It is filed as functional.
Experiment [12] has as its system Staphylococcus aureus. The experiment in a line: Antibacterial activity against Staphylococcus aureus MTCC 96 by NCCLS broth macrodilution method. In kind it is functional.
Experiment [13] has as its system Rattus norvegicus. Put plainly: Anti-inflammatory activity in Rattus norvegicus Wistar albino (rat) assessed as inhibition of carrageenan-induced paw edema at 50 mg/kg, po administered for 30 min prior to carrageenan challenge measured at 4 hr relative to control. It is filed as functional.
In a further experiment the test system is Escherichia coli. The experiment in a line: Antibacterial activity against Escherichia coli MTCC 1652 at 4 mg/ml after 24 hr by agar well diffusion method. In kind it is functional, organism-based.
In experiment [14] the test system is Pseudomonas aeruginosa. The experiment in a line: microbe, parasite or virus in culture. The settings on record: MTCC 741, 24 h, read-out: DIZ.

Broadly, the MIC is the lowest concentration that inhibits growth of the organism. Low readings indicate greater potency, high ones weaker potency.

Take `COc1ccc2c(c1)c(CC(=O)O)c(C)n2C(=O)c1ccc(Cl)cc1` [INDOMETHACIN]: the inhibition in vivo at 10 mg/kg in the experiment with Rattus norvegicus [1] was 78%; in the experiment listed under Rattus norvegicus [2], 41%; in the experiment filed under Rattus norvegicus [3], 79%; in the experiment with Rattus norvegicus [4], 78%.
With `Cc1ccc(-c2nn(-c3ccc(S(N)(=O)=O)cc3)cc2/C=N/NC(N)=S)cc1`, the MIC in the experiment on Bacillus subtilis [5] and in the experiment on Staphylococcus aureus [12] was over 128 µg/mL in each case. Besides, the inhibition in vivo at 50 mg/kg in the experiment on Rattus norvegicus [6] turned out to be 32%; in the experiment on Rattus norvegicus [10] it was 75%; in the experiment on Rattus norvegicus [11], 72%; in the experiment with Rattus norvegicus [13], 70%. For the same compound, in the experiment on Pseudomonas aeruginosa [7], the DIZ result was “inactive”. The zone of inhibition at 4000 µg/mL in the experiment with Bacillus subtilis [8] was found to be 14.3 mm; with Staphylococcus aureus [9], 16.3 mm. Also, the “diameter of the inhibition zone (DIZ)” value in the experiment with Escherichia coli is “inactive”.
On to `Cc1ccc(-c2csc(N/N=C/c3cn(-c4ccc(S(N)(=O)=O)cc4)nc3-c3ccccc3)n2)cc1`, for which the MIC against Bacillus subtilis [5] and in the experiment on Staphylococcus aureus [12] was over 128 µg/mL each time. Besides, the inhibition in vivo at 50 mg/kg was 28% in the experiment with Rattus norvegicus [6], 57% in the experiment on Rattus norvegicus [10], 65% in the experiment with Rattus norvegicus [11] and 60% with Rattus norvegicus [13]. The DIZ entry with Pseudomonas aeruginosa [7] was “inactive”. The zone of inhibition at 4000 µg/mL in the experiment on Bacillus subtilis [8] amounted to 14.6 mm; in the experiment with Staphylococcus aureus [9], 15 mm. Also, the “diameter of the inhibition zone (DIZ)” value in the experiment on Escherichia coli is “inactive”.
On to `Cc1ccc(-c2csc(N/N=C/c3cn(-c4ccc(S(N)(=O)=O)cc4)nc3-c3ccc(F)cc3)n2)cc1`, for which the MIC against Bacillus subtilis [5] and in the experiment on Staphylococcus aureus [12] was over 128 µg/mL throughout. The inhibition in vivo at 50 mg/kg came out at 33% with Rattus norvegicus [6], 73% with Rattus norvegicus [10], 72% in the experiment on Rattus norvegicus [11] and 70% with Rattus norvegicus [13]. Further, in the experiment with Pseudomonas aeruginosa [7], the DIZ result was “inactive”. Moreover, the zone of inhibition at 4000 µg/mL is 14.3 mm in the experiment with Bacillus subtilis [8] and 15.6 mm in the experiment on Staphylococcus aureus [9]. The “diameter of the inhibition zone (DIZ)” value in the experiment with Escherichia coli is “inactive”.
Regarding `NC(=S)N/N=C/c1cn(-c2ccc(S(N)(=O)=O)cc2)nc1-c1ccc(Cl)cc1`, the MIC with Bacillus subtilis [5] and in the experiment with Staphylococcus aureus [12] was over 128 µg/mL each time. Also, the inhibition in vivo at 50 mg/kg came out at 33% in the experiment with Rattus norvegicus [6], 77% with Rattus norvegicus [10], 76% in the experiment with Rattus norvegicus [11] and 71% in the experiment with Rattus norvegicus [13]. For the same compound, the DIZ entry in the experiment with Pseudomonas aeruginosa [7] is “inactive”. In addition, the zone of inhibition at 4000 µg/mL with Bacillus subtilis [8] is 13.6 mm; in the experiment with Staphylococcus aureus [9], 14 mm. Also, the “diameter of the inhibition zone (DIZ)” value in the experiment on Escherichia coli was “inactive”.
Take `O=C(O)c1cn(C2CC2)c2cc(N3CCNCC3)c(F)cc2c1=O` [CIPROFLOXACIN]: the MIC against Bacillus subtilis [5] and in the experiment on Staphylococcus aureus [12] was 5 µg/mL (≈ 15.1 µM) throughout. Also, the zone of inhibition at 4000 µg/mL in the experiment with Bacillus subtilis [8] turned out to be 25.6 mm; in the experiment on Staphylococcus aureus [9], 26.3 mm; in the experiment with Pseudomonas aeruginosa [14] it was 23.3 mm.
